# In ChEMBL document CHEMBL3885861, “Open TG-GATES”:
# Organism: Rattus norvegicus
# Experiment: Open TG-GATES - Regimen: Single
# Assay type: toxicity, organism-based, Sprague-Dawley
# Parameters: regimen Single, gender Male, age 6 weeks
# Details: in vivo, po, 24 h, route gavage; for Bas / Eos / Hb / Ht / Lym / MCH / MCHC / MCV / Mono / Neu / Plat / RBC / Ret / WBC: tissue Blood; for KIDNEY_L / KIDNEY_R / KIDNEY_TOTAL: tissue Kidney; for LIVER: tissue Liver; for A/G / ALP / ALT / AST / BUN / CRE / Ca / Cl / DBIL / GLC / IP / K / LDH / Na / PL / RALB / TBIL / TC / TG / TP / gamma-GTP: tissue Plasma
smiles,measurement,setting,value
O=[N+]([O-])c1ccc2c(c1)Cc1ccccc1-2 [2-NITROFLUORENE],TERMINAL_BW,"0 mg/kg, dose level Control",226.9 g
same,Bas,"0 mg/kg, dose level Control",0%
same,Eos,"0 mg/kg, dose level Control",0.8%
same,Hb,"0 mg/kg, dose level Control",12.7 g/dL
same,Ht,"0 mg/kg, dose level Control",38.9%
same,Lym,"0 mg/kg, dose level Control",78.4%
same,MCH,"0 mg/kg, dose level Control",20.5 pg
same,MCHC,"0 mg/kg, dose level Control",32.5%
same,MCV,"0 mg/kg, dose level Control",63.1 fL
same,Mono,"0 mg/kg, dose level Control",3.2%
same,Neu,"0 mg/kg, dose level Control",16.8%
same,Plat,"0 mg/kg, dose level Control",121 x10_4/uL
same,RBC,"0 mg/kg, dose level Control",618 x10_4/ul
same,Ret,"0 mg/kg, dose level Control",8.6%
same,WBC,"0 mg/kg, dose level Control",96.1 x10_2/uL
same,KIDNEY_L,"0 mg/kg, dose level Control",0.9 g
same,KIDNEY_R,"0 mg/kg, dose level Control",0.9 g
same,KIDNEY_TOTAL,"0 mg/kg, dose level Control",1.9 g
same,LIVER,"0 mg/kg, dose level Control",10.2 g
same,A/G,"0 mg/kg, dose level Control",1.1
same,ALP,"0 mg/kg, dose level Control",1444.8 IU/L
same,ALT,"0 mg/kg, dose level Control",41.6 IU/L
same,AST,"0 mg/kg, dose level Control",69.6 IU/L
same,BUN,"0 mg/kg, dose level Control",16.6 mg/dL
same,CRE,"0 mg/kg, dose level Control",0.2 mg/dL
same,Ca,"0 mg/kg, dose level Control",10.7 mg/dL
same,Cl,"0 mg/kg, dose level Control",104.2 meq/L
same,DBIL,"0 mg/kg, dose level Control",0.006 mg/dL
same,GLC,"0 mg/kg, dose level Control",193.2 mg/dL
same,IP,"0 mg/kg, dose level Control",6.8 mg/dL
same,K,"0 mg/kg, dose level Control",4.1 meq/L
same,LDH,"0 mg/kg, dose level Control",153.2 IU/L
same,Na,"0 mg/kg, dose level Control",141.1 meq/L
same,PL,"0 mg/kg, dose level Control",149 mg/dL
same,RALB,"0 mg/kg, dose level Control",2.8 g/dL
same,TBIL,"0 mg/kg, dose level Control",0 mg/dL
same,TC,"0 mg/kg, dose level Control",79.8 mg/dL
same,TG,"0 mg/kg, dose level Control",105.8 mg/dL
same,TP,"0 mg/kg, dose level Control",5.4 g/dL
same,gamma-GTP,"0 mg/kg, dose level Control",0.7 IU/L
same,TERMINAL_BW,"100 mg/kg, dose level Low",220.2 g
same,Bas,"100 mg/kg, dose level Low",0%
same,Eos,"100 mg/kg, dose level Low",0.2%
same,Hb,"100 mg/kg, dose level Low",12.8 g/dL
same,Ht,"100 mg/kg, dose level Low",39.6%
same,Lym,"100 mg/kg, dose level Low",79.6%
same,MCH,"100 mg/kg, dose level Low",20.4 pg
same,MCHC,"100 mg/kg, dose level Low",32.5%
same,MCV,"100 mg/kg, dose level Low",62.8 fL
same,Mono,"100 mg/kg, dose level Low",3.6%
same,Neu,"100 mg/kg, dose level Low",15.4%
same,Plat,"100 mg/kg, dose level Low",123.5 x10_4/uL
same,RBC,"100 mg/kg, dose level Low",631.6 x10_4/ul
same,Ret,"100 mg/kg, dose level Low",8.1%
same,WBC,"100 mg/kg, dose level Low",113.4 x10_2/uL
same,KIDNEY_L,"100 mg/kg, dose level Low",0.9 g
same,KIDNEY_R,"100 mg/kg, dose level Low",1 g
same,KIDNEY_TOTAL,"100 mg/kg, dose level Low",1.9 g
same,LIVER,"100 mg/kg, dose level Low",10.1 g
same,A/G,"100 mg/kg, dose level Low",1.2
same,ALP,"100 mg/kg, dose level Low",1937 IU/L
same,ALT,"100 mg/kg, dose level Low",39.8 IU/L
same,AST,"100 mg/kg, dose level Low",82.2 IU/L
same,BUN,"100 mg/kg, dose level Low",15.6 mg/dL
same,CRE,"100 mg/kg, dose level Low",0.2 mg/dL
same,Ca,"100 mg/kg, dose level Low",10.5 mg/dL
same,Cl,"100 mg/kg, dose level Low",105.3 meq/L
same,DBIL,"100 mg/kg, dose level Low",0.02 mg/dL
same,GLC,"100 mg/kg, dose level Low",174.6 mg/dL
same,IP,"100 mg/kg, dose level Low",6.7 mg/dL
same,K,"100 mg/kg, dose level Low",4.3 meq/L
same,LDH,"100 mg/kg, dose level Low",259.2 IU/L
same,Na,"100 mg/kg, dose level Low",139.7 meq/L
same,PL,"100 mg/kg, dose level Low",124.6 mg/dL
same,RALB,"100 mg/kg, dose level Low",2.8 g/dL
same,TBIL,"100 mg/kg, dose level Low",0.012 mg/dL
same,TC,"100 mg/kg, dose level Low",64.2 mg/dL
same,TG,"100 mg/kg, dose level Low",64.7 mg/dL
same,TP,"100 mg/kg, dose level Low",5.2 g/dL
same,gamma-GTP,"100 mg/kg, dose level Low",0.7 IU/L
same,TERMINAL_BW,"300 mg/kg, dose level Middle",216.7 g
same,Bas,"300 mg/kg, dose level Middle",0%
same,Eos,"300 mg/kg, dose level Middle",0.4%
same,Hb,"300 mg/kg, dose level Middle",13.1 g/dL
same,Ht,"300 mg/kg, dose level Middle",40.4%
same,Lym,"300 mg/kg, dose level Middle",73.4%
same,MCH,"300 mg/kg, dose level Middle",20.4 pg
same,MCHC,"300 mg/kg, dose level Middle",32.6%
same,MCV,"300 mg/kg, dose level Middle",62.6 fL
same,Mono,"300 mg/kg, dose level Middle",6%
same,Neu,"300 mg/kg, dose level Middle",18.2%
same,Plat,"300 mg/kg, dose level Middle",124.8 x10_4/uL
same,RBC,"300 mg/kg, dose level Middle",645 x10_4/ul
same,Ret,"300 mg/kg, dose level Middle",8.6%
same,WBC,"300 mg/kg, dose level Middle",91 x10_2/uL
same,KIDNEY_L,"300 mg/kg, dose level Middle",1 g
same,KIDNEY_R,"300 mg/kg, dose level Middle",1 g
same,KIDNEY_TOTAL,"300 mg/kg, dose level Middle",1.9 g
same,LIVER,"300 mg/kg, dose level Middle",9.6 g
same,A/G,"300 mg/kg, dose level Middle",1.2
same,ALP,"300 mg/kg, dose level Middle",1406.4 IU/L
same,ALT,"300 mg/kg, dose level Middle",35 IU/L
same,AST,"300 mg/kg, dose level Middle",83.2 IU/L
same,BUN,"300 mg/kg, dose level Middle",16.3 mg/dL
same,CRE,"300 mg/kg, dose level Middle",0.2 mg/dL
same,Ca,"300 mg/kg, dose level Middle",10.2 mg/dL
same,Cl,"300 mg/kg, dose level Middle",104.9 meq/L
same,DBIL,"300 mg/kg, dose level Middle",0.02 mg/dL
same,GLC,"300 mg/kg, dose level Middle",165.6 mg/dL
same,IP,"300 mg/kg, dose level Middle",7.7 mg/dL
same,K,"300 mg/kg, dose level Middle",4.5 meq/L
same,LDH,"300 mg/kg, dose level Middle",203 IU/L
same,Na,"300 mg/kg, dose level Middle",139.3 meq/L
same,PL,"300 mg/kg, dose level Middle",115.2 mg/dL
same,RALB,"300 mg/kg, dose level Middle",2.8 g/dL
same,TBIL,"300 mg/kg, dose level Middle",0.022 mg/dL
same,TC,"300 mg/kg, dose level Middle",61.2 mg/dL
same,TG,"300 mg/kg, dose level Middle",47.3 mg/dL
same,TP,"300 mg/kg, dose level Middle",5.2 g/dL
same,gamma-GTP,"300 mg/kg, dose level Middle",0.7 IU/L
same,TERMINAL_BW,"1000 mg/kg, dose level High",211.8 g
same,Bas,"1000 mg/kg, dose level High",0%
same,Eos,"1000 mg/kg, dose level High",0.4%
same,Hb,"1000 mg/kg, dose level High",13.6 g/dL
same,Ht,"1000 mg/kg, dose level High",41.6%
same,Lym,"1000 mg/kg, dose level High",79.4%
same,MCH,"1000 mg/kg, dose level High",21 pg
same,MCHC,"1000 mg/kg, dose level High",32.7%
same,MCV,"1000 mg/kg, dose level High",64.2 fL
same,Mono,"1000 mg/kg, dose level High",4%
same,Neu,"1000 mg/kg, dose level High",15.6%
same,Plat,"1000 mg/kg, dose level High",127.8 x10_4/uL
same,RBC,"1000 mg/kg, dose level High",647.8 x10_4/ul
same,Ret,"1000 mg/kg, dose level High",8.3%
same,WBC,"1000 mg/kg, dose level High",75.6 x10_2/uL
same,KIDNEY_L,"1000 mg/kg, dose level High",0.9 g
same,KIDNEY_R,"1000 mg/kg, dose level High",0.9 g
same,KIDNEY_TOTAL,"1000 mg/kg, dose level High",1.8 g
same,LIVER,"1000 mg/kg, dose level High",9.6 g
same,A/G,"1000 mg/kg, dose level High",1.1
same,ALP,"1000 mg/kg, dose level High",1276 IU/L
same,ALT,"1000 mg/kg, dose level High",29.8 IU/L
same,AST,"1000 mg/kg, dose level High",74.4 IU/L
same,BUN,"1000 mg/kg, dose level High",12.8 mg/dL
same,CRE,"1000 mg/kg, dose level High",0.1 mg/dL
same,Ca,"1000 mg/kg, dose level High",10.3 mg/dL
same,Cl,"1000 mg/kg, dose level High",104.8 meq/L
same,DBIL,"1000 mg/kg, dose level High",0.008 mg/dL
same,GLC,"1000 mg/kg, dose level High",183.8 mg/dL
same,IP,"1000 mg/kg, dose level High",7.6 mg/dL
same,K,"1000 mg/kg, dose level High",4.1 meq/L
same,LDH,"1000 mg/kg, dose level High",313.2 IU/L
same,Na,"1000 mg/kg, dose level High",141 meq/L
same,PL,"1000 mg/kg, dose level High",112.4 mg/dL
same,RALB,"1000 mg/kg, dose level High",2.9 g/dL
same,TBIL,"1000 mg/kg, dose level High",0.01 mg/dL
same,TC,"1000 mg/kg, dose level High",57.2 mg/dL
same,TG,"1000 mg/kg, dose level High",47.6 mg/dL
same,TP,"1000 mg/kg, dose level High",5.5 g/dL
same,gamma-GTP,"1000 mg/kg, dose level High",0.8 IU/L
